Assay results from ChEMBL document CHEMBL1909046, “DrugMatrix in vitro pharmacology data”.

Legend:
[1] = biological target: T1, 3-hydroxy-3-methylglutaryl-coenzyme A reductase (Homo sapiens, UniProt P04035); set-up: species or system Escherichia coli;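 also: enzyme inhibition assay of HMG-CoA reductase using radiolabeled [14C]HMG-CoA as substrate; in other assays of this panel Not Active means under 50% inhibition at 10 µM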
T1 sequence (P04035 whole entry): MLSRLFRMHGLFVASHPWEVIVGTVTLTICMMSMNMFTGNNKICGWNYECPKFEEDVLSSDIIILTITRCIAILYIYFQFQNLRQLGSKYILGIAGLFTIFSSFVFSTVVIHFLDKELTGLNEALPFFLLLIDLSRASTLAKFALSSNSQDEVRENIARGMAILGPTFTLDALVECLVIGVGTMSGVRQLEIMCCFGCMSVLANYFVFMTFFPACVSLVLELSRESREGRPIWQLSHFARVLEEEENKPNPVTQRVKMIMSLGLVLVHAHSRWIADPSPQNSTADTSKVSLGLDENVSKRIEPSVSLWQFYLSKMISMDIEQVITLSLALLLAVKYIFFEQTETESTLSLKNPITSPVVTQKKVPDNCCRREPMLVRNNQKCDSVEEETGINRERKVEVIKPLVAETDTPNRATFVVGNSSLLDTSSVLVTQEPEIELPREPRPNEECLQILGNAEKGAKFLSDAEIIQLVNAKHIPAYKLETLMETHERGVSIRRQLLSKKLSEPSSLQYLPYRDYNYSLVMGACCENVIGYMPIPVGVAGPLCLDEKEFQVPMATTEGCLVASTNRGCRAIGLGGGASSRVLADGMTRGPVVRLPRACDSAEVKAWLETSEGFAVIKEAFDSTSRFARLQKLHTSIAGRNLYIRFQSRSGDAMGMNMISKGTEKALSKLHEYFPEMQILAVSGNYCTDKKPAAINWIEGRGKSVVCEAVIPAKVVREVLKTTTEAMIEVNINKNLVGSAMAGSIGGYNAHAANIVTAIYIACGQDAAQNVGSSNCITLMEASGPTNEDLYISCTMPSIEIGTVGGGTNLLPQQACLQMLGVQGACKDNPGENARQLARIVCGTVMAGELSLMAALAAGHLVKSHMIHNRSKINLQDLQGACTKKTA

[2] = biological target: Prostaglandin G/H synthase 1 (Homo sapiens, UniProt P23219); assay: biochemical; type: tissue-based, Platelet; conditions: platelet;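 also: inhibition of COX-1 enzyme activity, with arachidonic acid supplied as substrate; in other assays of this panel Not Active means under 50% inhibition at 10 µM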
Prostaglandin G/H synthase 1, sequence (P23219 whole entry): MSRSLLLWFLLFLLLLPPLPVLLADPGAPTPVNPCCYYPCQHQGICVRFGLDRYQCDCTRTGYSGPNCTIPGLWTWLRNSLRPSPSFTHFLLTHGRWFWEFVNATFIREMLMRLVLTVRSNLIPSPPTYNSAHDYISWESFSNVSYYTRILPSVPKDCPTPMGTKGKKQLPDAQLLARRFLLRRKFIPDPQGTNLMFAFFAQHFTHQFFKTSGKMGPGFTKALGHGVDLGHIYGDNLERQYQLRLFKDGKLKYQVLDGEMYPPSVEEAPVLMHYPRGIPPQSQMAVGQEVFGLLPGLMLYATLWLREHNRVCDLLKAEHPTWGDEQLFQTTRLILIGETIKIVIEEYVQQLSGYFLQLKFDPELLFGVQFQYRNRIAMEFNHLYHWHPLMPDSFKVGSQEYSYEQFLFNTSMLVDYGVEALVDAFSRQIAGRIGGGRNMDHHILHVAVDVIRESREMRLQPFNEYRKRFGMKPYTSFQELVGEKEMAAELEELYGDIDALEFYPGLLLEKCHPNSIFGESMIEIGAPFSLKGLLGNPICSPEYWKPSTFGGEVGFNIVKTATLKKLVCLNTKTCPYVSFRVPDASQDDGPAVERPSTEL

[3] = biological target: cGMP-specific 3',5'-cyclic phosphodiesterase (Homo sapiens, UniProt O76074); assay: DRUGMATRIX: Phosphodiesterase PDE5 enzyme inhibition (substrate: [3H]cGMP + cGMP); type: tissue-based, Platelet; conditions: platelet; Not Active = under 50% inhibition at 10 µM
[4] = biological target: Receptor tyrosine-protein kinase erbB-2 (Homo sapiens, UniProt P04626); assay: biochemical; type: cell-based, Insect cells; conditions: insect cells;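 also: inhibition of HER2 kinase enzyme activity, measured with Poly(Glu:Tyr) as the phosphorylation substrate; in other assays of this panel Not Active means under 50% inhibition at 10 µM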
Cytochrome P450 2E1 = Cytochrome P450 2E1 (Homo sapiens, UniProt P05181); conditions: bti-tn-5b1-4; also: in other assays of this panel Not Active means under 50% inhibition at 10 µM
Cytochrome P450 2E1, sequence (P05181 whole entry): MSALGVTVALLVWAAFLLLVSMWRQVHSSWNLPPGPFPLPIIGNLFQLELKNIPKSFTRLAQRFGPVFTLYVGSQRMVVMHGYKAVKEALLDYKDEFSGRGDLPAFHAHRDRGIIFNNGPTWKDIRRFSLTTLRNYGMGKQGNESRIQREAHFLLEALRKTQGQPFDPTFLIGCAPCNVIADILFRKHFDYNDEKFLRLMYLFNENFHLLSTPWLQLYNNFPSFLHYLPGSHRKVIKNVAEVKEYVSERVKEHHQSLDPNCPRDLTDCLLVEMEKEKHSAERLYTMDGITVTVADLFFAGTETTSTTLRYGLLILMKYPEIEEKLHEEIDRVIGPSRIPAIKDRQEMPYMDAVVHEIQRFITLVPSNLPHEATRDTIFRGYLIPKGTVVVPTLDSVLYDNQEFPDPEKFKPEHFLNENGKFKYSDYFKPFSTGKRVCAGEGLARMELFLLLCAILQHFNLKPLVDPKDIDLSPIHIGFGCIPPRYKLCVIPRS

Vasopressin V1a receptor = Vasopressin V1a receptor (Homo sapiens, UniProt P37288); type: cell membranes, Membrane; conditions: hek293; also: in other assays of this panel Not Active means under 50% inhibition at 10 µM
Vasopressin V1a receptor, sequence (P37288 whole entry): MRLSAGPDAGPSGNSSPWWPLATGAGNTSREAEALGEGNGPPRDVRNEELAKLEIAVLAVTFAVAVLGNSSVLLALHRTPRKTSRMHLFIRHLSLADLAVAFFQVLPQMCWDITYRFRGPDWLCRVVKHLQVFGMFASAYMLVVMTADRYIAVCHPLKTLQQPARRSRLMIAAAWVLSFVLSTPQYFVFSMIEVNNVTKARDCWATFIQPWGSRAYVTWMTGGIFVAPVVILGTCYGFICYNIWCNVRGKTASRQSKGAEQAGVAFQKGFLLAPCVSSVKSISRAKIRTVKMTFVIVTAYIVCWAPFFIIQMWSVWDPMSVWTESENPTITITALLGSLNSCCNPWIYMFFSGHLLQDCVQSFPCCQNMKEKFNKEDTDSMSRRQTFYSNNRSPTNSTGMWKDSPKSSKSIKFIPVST

[5] = DRUGMATRIX: beta-Lactamase enzyme inhibition (substrate: Nitrocefin); set-up: species or system Bacillus cereus; conditions: Not Active = under 50% inhibition at 10 µM
Nitric oxide synthase 1 = Nitric oxide synthase 1 (Rattus norvegicus, UniProt P29476); type: tissue-based, Cerebellum; also: in other assays of this panel Not Active means under 50% inhibition at 10 µM
Nitric oxide synthase 1, sequence (P29476 whole entry): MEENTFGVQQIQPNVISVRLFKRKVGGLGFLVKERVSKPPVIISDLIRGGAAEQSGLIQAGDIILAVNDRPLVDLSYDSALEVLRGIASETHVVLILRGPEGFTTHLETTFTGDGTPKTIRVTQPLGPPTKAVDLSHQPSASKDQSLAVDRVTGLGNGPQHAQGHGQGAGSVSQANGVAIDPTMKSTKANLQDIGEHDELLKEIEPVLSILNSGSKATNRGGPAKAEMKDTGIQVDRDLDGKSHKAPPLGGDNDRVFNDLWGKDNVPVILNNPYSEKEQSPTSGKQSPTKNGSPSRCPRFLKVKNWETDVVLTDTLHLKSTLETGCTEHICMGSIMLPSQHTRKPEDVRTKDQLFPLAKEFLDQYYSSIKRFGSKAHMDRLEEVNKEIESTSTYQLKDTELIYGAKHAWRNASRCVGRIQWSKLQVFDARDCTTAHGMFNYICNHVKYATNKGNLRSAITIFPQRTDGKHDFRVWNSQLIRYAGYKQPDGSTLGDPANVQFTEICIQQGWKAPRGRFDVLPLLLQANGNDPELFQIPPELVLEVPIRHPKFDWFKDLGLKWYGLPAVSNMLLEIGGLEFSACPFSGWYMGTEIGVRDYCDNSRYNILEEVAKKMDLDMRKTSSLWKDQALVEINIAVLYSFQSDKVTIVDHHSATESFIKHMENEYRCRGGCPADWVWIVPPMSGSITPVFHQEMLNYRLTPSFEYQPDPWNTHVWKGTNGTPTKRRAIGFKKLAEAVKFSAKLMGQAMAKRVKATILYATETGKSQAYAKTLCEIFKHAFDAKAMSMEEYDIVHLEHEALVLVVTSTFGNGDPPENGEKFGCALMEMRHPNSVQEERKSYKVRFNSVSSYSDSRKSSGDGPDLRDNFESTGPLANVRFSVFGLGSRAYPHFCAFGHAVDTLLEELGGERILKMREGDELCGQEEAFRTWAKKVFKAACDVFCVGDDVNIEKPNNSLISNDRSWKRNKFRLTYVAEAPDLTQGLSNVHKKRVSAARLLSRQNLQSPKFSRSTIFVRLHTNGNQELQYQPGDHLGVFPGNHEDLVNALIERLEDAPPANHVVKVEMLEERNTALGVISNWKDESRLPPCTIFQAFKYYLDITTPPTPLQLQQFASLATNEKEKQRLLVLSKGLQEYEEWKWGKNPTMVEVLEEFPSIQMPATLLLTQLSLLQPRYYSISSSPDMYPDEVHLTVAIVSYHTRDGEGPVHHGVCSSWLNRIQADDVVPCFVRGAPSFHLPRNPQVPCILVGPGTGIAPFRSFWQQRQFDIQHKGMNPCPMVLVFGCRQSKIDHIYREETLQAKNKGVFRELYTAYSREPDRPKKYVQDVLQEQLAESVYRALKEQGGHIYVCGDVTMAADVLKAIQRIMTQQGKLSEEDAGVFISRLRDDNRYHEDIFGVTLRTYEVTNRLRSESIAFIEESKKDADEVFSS

[6] = biological target: T2, Vasoactive intestinal polypeptide receptor 1 (Homo sapiens, UniProt P32241); type: cell membranes, Membrane; conditions: ht-29; also: in other assays of this panel Not Active means under 50% inhibition at 10 µM
T2 sequence (P32241 whole entry): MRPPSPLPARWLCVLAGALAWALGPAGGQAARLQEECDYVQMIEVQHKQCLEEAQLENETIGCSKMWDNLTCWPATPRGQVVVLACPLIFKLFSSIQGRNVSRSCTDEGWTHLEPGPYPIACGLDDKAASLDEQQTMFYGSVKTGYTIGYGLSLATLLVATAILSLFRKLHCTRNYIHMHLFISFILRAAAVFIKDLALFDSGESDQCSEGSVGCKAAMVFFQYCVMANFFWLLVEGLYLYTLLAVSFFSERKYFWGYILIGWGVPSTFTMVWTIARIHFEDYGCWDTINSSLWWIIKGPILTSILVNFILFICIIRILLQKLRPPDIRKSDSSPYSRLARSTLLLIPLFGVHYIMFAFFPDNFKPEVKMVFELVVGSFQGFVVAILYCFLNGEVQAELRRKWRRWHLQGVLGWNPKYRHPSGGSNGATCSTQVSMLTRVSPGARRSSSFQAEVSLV

Neutrophil elastase = biological target: T3, Neutrophil elastase (Homo sapiens, UniProt P08246); type: tissue-based
T3 sequence (P08246 whole entry): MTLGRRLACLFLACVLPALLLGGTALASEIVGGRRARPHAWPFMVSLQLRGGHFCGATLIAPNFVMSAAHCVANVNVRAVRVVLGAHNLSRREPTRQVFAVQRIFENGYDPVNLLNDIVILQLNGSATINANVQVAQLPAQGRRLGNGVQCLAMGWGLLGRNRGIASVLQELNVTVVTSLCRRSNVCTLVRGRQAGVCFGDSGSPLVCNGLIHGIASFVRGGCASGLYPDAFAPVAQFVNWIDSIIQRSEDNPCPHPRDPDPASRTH

D(3) dopamine receptor = D(3) dopamine receptor (Homo sapiens, UniProt P35462); assay: DRUGMATRIX: Dopamine D3 radioligand binding (ligand: [3H] Spiperone); type: cell membranes, CHO, Membrane; conditions: cho
D(3) dopamine receptor, sequence (P35462 whole entry): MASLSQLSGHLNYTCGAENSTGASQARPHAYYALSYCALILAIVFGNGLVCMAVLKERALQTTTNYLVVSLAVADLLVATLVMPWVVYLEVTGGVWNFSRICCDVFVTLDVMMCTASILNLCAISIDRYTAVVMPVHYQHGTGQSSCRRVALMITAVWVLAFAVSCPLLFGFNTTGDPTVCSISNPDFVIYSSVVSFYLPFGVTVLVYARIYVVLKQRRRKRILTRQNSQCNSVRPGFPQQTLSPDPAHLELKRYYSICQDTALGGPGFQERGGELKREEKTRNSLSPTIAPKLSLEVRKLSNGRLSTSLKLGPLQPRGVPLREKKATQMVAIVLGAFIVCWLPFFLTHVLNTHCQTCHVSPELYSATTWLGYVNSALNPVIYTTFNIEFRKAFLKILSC

[7] = biological target: 5-hydroxytryptamine receptor 1B (Rattus norvegicus, UniProt P28564); type: cell membranes, Wistar, Cerebral cortex, Membrane; also: in other assays of this panel Not Active means under 50% inhibition at 10 µM
5-hydroxytryptamine receptor 1B, sequence (P28564 whole entry): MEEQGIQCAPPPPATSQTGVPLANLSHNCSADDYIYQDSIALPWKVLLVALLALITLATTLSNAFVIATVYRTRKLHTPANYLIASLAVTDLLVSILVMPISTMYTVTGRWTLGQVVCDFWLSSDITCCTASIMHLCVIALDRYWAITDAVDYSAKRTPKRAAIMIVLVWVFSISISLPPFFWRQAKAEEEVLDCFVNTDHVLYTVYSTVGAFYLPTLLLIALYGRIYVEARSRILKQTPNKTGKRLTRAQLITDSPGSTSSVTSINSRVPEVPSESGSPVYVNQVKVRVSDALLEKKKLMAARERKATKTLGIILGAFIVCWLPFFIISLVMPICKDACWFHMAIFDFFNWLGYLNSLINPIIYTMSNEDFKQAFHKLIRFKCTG

[8] = DRUGMATRIX: Sodium/nucleoside co-transporter radioligand binding (ligand: nitrobenzylthioinosine); type: cell membranes, Cavia porcellus, Dunkin-Hartley, Cerebral cortex, Membrane; conditions: Not Active = under 50% inhibition at 10 µM
[9] = biological target: T4, Type-2 angiotensin II receptor (Homo sapiens, UniProt P50052); type: cell-based; conditions: cho-k1; also: in other assays of this panel Not Active means under 50% inhibition at 10 µM
T4 sequence (P50052 whole entry): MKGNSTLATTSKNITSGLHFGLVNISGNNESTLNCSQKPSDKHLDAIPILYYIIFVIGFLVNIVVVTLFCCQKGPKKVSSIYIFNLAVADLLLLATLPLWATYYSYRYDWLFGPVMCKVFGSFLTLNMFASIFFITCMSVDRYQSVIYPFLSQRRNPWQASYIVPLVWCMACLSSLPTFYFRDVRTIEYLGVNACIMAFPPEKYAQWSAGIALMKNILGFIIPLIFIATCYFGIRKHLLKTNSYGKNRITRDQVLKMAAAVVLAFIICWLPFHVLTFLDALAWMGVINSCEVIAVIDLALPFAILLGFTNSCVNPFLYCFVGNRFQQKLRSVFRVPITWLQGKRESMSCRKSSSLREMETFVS

[10] = biological target: 5-hydroxytryptamine receptor 6 (Homo sapiens, UniProt P50406); type: cell membranes, HeLa, Membrane; conditions: hela; also: in other assays of this panel Not Active means under 50% inhibition at 10 µM
5-hydroxytryptamine receptor 6, sequence (P50406 whole entry): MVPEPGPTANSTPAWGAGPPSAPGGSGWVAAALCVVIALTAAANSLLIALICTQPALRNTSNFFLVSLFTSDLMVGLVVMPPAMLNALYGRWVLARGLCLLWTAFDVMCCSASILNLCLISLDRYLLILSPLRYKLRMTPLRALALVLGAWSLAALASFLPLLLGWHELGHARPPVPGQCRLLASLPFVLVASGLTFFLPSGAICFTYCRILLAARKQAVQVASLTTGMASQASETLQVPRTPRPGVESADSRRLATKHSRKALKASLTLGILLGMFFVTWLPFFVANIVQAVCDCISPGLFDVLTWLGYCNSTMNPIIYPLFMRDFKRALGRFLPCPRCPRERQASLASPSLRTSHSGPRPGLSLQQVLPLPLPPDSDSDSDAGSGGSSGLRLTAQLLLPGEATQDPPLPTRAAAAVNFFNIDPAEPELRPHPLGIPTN

Cannabinoid receptor 1 = Cannabinoid receptor 1 (Homo sapiens, UniProt P21554); type: cell membranes, Membrane; conditions: chem-1; also: in other assays of this panel Not Active means under 50% inhibition at 10 µM
Cannabinoid receptor 1, sequence (P21554 whole entry): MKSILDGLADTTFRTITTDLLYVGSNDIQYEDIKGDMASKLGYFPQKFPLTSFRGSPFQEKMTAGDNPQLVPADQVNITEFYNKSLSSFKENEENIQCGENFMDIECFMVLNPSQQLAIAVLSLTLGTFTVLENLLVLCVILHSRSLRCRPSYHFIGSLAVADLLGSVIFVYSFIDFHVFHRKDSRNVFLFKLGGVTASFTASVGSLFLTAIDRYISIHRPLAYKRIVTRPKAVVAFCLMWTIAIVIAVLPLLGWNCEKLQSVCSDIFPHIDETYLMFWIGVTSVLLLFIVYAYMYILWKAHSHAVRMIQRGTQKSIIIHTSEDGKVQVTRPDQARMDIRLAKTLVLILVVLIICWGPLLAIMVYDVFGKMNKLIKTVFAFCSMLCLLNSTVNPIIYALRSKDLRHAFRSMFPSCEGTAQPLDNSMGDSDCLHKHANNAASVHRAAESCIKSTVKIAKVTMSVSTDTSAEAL

Compound | IC50 [1] | IC50 [2] | IC50 [3] | IC50 [4] | IC50 (Cytochrome P450 2E1) | Ki (Cytochrome P450 2E1) | IC50 (Vasopressin V1a receptor) | IC50 [5] | Ki [5] | IC50 (Nitric oxide synthase 1) | IC50 [6] | IC50 (Neutrophil elastase) | IC50 (D(3) dopamine receptor) | IC50 [7] | IC50 [8] | Ki [8] | IC50 [9] | IC50 [10] | IC50 (Cannabinoid receptor 1) | other results
NC(CO)(CO)CO [TROMETHAMINE] | Not Active | Not Active | Not Active | Not Active | Not Active | Not Active | Not Active | Not Active | Not Active | Not Active | Not Active | Not Active | Not Active | Not Active | Not Active | Not Active | Not Active | Not Active | Not Active | 
CN1[C@@H]2CC[C@H]1C[C@@H](OC(=O)c1c[nH]c3ccccc13)C2 [TROPISETRON] | Not Active | Not Active | Not Active | Not Active | Not Active | Not Active | Not Active | Not Active | Not Active | Not Active | Not Active | Not Active | Not Active | Not Active | Not Active | Not Active | Not Active | Not Active | Not Active | 
COc1cc(C(=O)NC2CCCNC2)cc(OC)c1OC (stereo unspecified) [TROXIPIDE] | Not Active | Not Active | Not Active | Not Active | Not Active | Not Active | Not Active | Not Active | Not Active | Not Active | Not Active | Not Active | Not Active | Not Active | Not Active | Not Active | Not Active | Not Active | Not Active | 
CC(C)[C@H](N)C(=O)OCCOCn1cnc2c(=O)nc(N)[nH]c21 [VALACYCLOVIR] | Not Active | Not Active | Not Active | Not Active | Not Active | Not Active | Not Active | Not Active | Not Active | Not Active | Not Active | Not Active | Not Active | Not Active | Not Active | Not Active | Not Active | Not Active | Not Active | 
CN[C@H](CC(C)C)C(=O)N[C@H]1C(=O)N[C@@H](CC(N)=O)C(=O)N[C@H]2C(=O)N[C@H]3C(=O)N[C@H](C(=O)N[C@H](C(=O)O)c4cc(O)cc(O)c4-c4cc3ccc4O)[C@H](O)c3ccc(c(Cl)c3)Oc3cc2cc(c3O[C@@H]2O[C@H](CO)[C@@H](O)[C@H](O)[C@H]2O[C@H]2C[C@](C)(N)[C@H](O)[C@H](C)O2)Oc2ccc(cc2Cl)[C@H]1O [VANCOMYCIN] | Not Active | Not Active | Not Active | Not Active | Not Active | Not Active | Not Active | Not Active | Not Active | Not Active | Not Active | Not Active | Not Active | Not Active | Not Active | Not Active | Not Active | Not Active | Not Active | 
COc1ccc(C(CN(C)C)C2(O)CCCCC2)cc1 (stereo unspecified) [VENLAFAXINE] | Not Active | Not Active | Not Active | Not Active | Not Active | Not Active | Not Active | Not Active | Not Active | Not Active | Not Active | Not Active | Not Active | Not Active | Not Active | Not Active | Not Active | Not Active | Not Active | 
IVERMECTIN | Not Active | Not Active | Not Active | Not Active | Not Active | Not Active | Not Active | Not Active | Not Active | Not Active | Not Active | Not Active |  | Not Active | Not Active | Not Active | Not Active | Not Active | Not Active | Ki [1]: Not Active; Ki [2]: Not Active; Ki [3]: Not Active; Ki [4]: Not Active; Ki (Vasopressin V1a receptor): Not Active; Ki (Nitric oxide synthase 1): Not Active; Ki [6]: Not Active; Ki (Neutrophil elastase): Not Active; IC50 (D(3) dopamine receptor; read-out: IC50): 2210 nM; Ki (D(3) dopamine receptor; read-out: Ki): 750 nM; Ki [7]: Not Active; Ki [9]: Not Active; Ki [10]: Not Active; Ki (Cannabinoid receptor 1): Not Active
